pEC50: −log10 of the molar value.

Data on 32 molecules can be found in US20240279215A1 (Cytokinetics, Incorporated, priority 2022, published 2024).

For this experiment, the target named is human NAMPT (Homo sapiens (Human), UniProt P43490). Put plainly: NMN fluorescence biochemical assay (human recombinant NAMPT enzyme assay). The method in brief: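 Activation of recombinant human NAMPT (6 nM) was tested with 2.5 mM ATP, 20 μM PRPP and 150 μM nicotinamide in 50 mM HEPES pH 7.2 for 60 min at ambient temperature. NMN was derivatized with acetophenone/KOH/formic acid and read by fluorescence (355/460 nm) after 40 min.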
Sequence of human NAMPT (P43490 whole entry): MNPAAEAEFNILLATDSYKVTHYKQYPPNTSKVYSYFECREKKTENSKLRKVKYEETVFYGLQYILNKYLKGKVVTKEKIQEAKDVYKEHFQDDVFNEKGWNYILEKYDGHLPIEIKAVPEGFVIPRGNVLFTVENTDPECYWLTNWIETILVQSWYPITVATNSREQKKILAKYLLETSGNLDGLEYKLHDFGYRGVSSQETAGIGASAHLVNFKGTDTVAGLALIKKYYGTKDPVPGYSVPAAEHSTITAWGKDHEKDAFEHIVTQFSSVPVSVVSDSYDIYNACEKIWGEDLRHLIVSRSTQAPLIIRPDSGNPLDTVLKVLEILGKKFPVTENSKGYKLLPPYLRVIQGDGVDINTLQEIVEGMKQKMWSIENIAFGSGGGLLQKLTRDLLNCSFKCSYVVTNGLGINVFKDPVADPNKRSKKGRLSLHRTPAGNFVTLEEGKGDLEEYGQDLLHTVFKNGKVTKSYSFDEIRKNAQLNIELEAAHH

Consider `CC(=O)N1CC2CCC(C1)C2Cc1ccc(NC(=O)OCc2cnco2)cc1` (stereo not shown) [Compound 424, oxazol-5-ylmethyl (4-((3-acetyl-3-azabicyclo[3.2.1]octan-8-yl)methyl)phenyl)carbamate], for which the “AC1.4 Human” value amounted to 0.04 µM and the negative logarithm of the EC50 (pEC50) is 5.95.
For the molecule `Cc1ccc(N(C)C(=O)Cc2ccc(NC(=O)OCc3ccc(Cl)cc3)cc2)cn1` [Compound 264, (4-chlorophenyl)methyl N-(4-{[methyl(6-methylpyridin-3-yl)carbamoyl]methyl}phenyl)carbamate], the “AC1.4 Human” value was 2.93 µM and the negative logarithm of the EC50 (pEC50) is 4.71.
Turning to `O=C(Nc1ccc(C2CCN(CC(F)F)CC2)cc1)OCc1cnco1` [Compound 113, 1,3-oxazol-5-ylmethyl N-{4-[1-(2,2-difluoroethyl)piperidin-4-yl]phenyl}carbamate], the “AC1.4 Human” value was found to be 0.94 µM and the negative-log EC50 (pEC50) is 4.29.
As to `O=C(Nc1ccc(Cc2ccncc2)cc1)OCc1cn[nH]c1` [Compound 99, (1H-pyrazol-4-yl)methyl (4-(pyridin-4-ylmethyl)phenyl)carbamate], the “AC1.4 Human” value is 0.79 µM and the pEC50 was 4.29.
On to `O=C1CN(C(=O)Cc2ccc(NC(=O)OCc3ccc(Cl)cc3)cc2)CCN1` [Compound 235, (4-chlorophenyl)methyl N-{4-[2-oxo-2-(3-oxopiperazin-1-yl)ethyl]phenyl}carbamate], for which the “AC1.4 Human” value was found to be 2.22 µM and the pEC50 is 4.35.
`C[C@H](NC(=O)N1CCOCC1)c1ccc(NC(=O)OCc2ccc(Cl)cc2)cc1` [Compound 154, 4-chlorobenzyl (S)-(4-(1-(morpholine-4-carboxamido)ethyl)phenyl)carbamate]: the “AC1.4 Human” value is 1.30 µM and the pEC50 was 4.92.
The like results for `O=C(Nc1ccc(CN2CCOC2=O)cc1)OCc1ccc(Cl)cc1` [Compound 242, (4-chlorophenyl)methyl N-{4-[(2-oxo-1,3-oxazolidin-3-yl)methyl]phenyl}carbamate] were, in that order, 2.38 µM and 4.70.
The like results for `O=C(Nc1ccc(Cc2ccncc2)cc1)OCc1cnco1` [Compound 153, oxazol-5-ylmethyl (4-(pyridin-4-ylmethyl)phenyl)carbamate] were, in that order, 1.27 µM and 4.47.
The like results for `O=C(Nc1ccc(C2CCN(C(=O)C3CC3)CC2)cc1)OCc1cnco1` [Compound 431, oxazol-5-ylmethyl (4-(1-(cyclopropanecarbonyl)piperidin-4-yl)phenyl)carbamate] were, in that order, 0.17 µM and 4.56.
Regarding `O=C(Nc1ccc(CNC(=O)c2cncc(F)c2)cc1)OCc1ccc(Cl)cc1` [Compound 271, (4-chlorophenyl)methyl N-(4-{[(5-fluoropyridin-3-yl)formamido]methyl}phenyl)], the “AC1.4 Human” value was 3.15 µM and the pEC50 is 5.32.
The like results for `O=C(Nc1ccc(CC(=O)N2CCCC[C@H]2CO)cc1)OCc1ccc(Cl)cc1` [Compound 257, (4-chlorophenyl)methyl N-(4-{2-[(2S)-2-(hydroxymethyl)piperidin-1-yl]-2-oxoethyl}phenyl)carbamate] were, in that order, 2.70 µM and 4.51.
For the molecule `CO[C@H]1CC[C@@H](NC(=O)Cc2ccc(NC(=O)OCc3ccc(Cl)cc3)cc2)CC1` [Compound 280, (4-chlorophenyl)methyl N-[4-({[(1s,4s)-4-methoxycyclohexyl]carbamoyl}methyl)phenyl]carbamate], the “AC1.4 Human” value was 3.51 µM and the pEC50 was 4.84.
In the case of `C[C@H](NC(=O)C1CC(F)(F)C1)c1ccc(NC(=O)OCc2cnco2)cc1` [Compound 75, 1,3-oxazol-5-ylmethyl N-{4-[(1S)-1-[(3,3-difluorocyclobutyl)formamido]ethyl]phenyl}carbamate], the “AC1.4 Human” value was found to be 0.64 µM and the negative logarithm of the EC50 (pEC50) is 4.58.
The like results for `Cc1nn(C)c(C(=O)N(C)Cc2ccc(NC(=O)OCc3ccc(Cl)cc3)cc2)c1C` [Compound 127, (4-chlorophenyl)methyl N-(4-{[N-methyl-1-(2,4,5-trimethylpyrazol-3-yl)formamido]methyl}phenyl)carbamate] were, in that order, 1.00 µM and 5.14.
The like results for `COc1ccc(COC(=O)Nc2ccc(CN3CCN(c4ccccn4)CC3)cc2)cc1` [Compound 83, (4-methoxyphenyl)methyl N-(4-{[4-(pyridin-2-yl)piperazin-1-yl]methyl}phenyl)carbamate] were, in that order, 0.66 µM and 5.09.
In the case of `COC1CCN(C(=O)N(C)Cc2ccc(NC(=O)OCc3ccc(Cl)cc3)cc2)CC1` [Compound 42, 4-chlorobenzyl (4-((4-methoxy-N-methylpiperidine-1-carboxamido)methyl)phenyl)carbamate], the “AC1.4 Human” value amounted to 0.44 µM and the pEC50 was 5.25.
With `Cc1cc(C(=O)N[C@@H](C)c2ccc(NC(=O)OCc3ccc(Cl)cc3)cc2)n(C)n1` [Compound 139, (4-chlorophenyl)methyl N-{4-[(1S)-1-[(2,5-dimethylpyrazol-3-yl)formamido]ethyl]phenyl}carbamate], the “AC1.4 Human” value was determined as 1.11 µM and the pEC50 is 4.88.
Consider `CN(Cc1ccc(NC(=O)OCc2ccc(Cl)cc2)cc1)C(=O)c1cncc(F)c1` [Compound 250, (4-chlorophenyl)methyl N-(4-{[1-(5-fluoropyridin-3-yl)-N-methylformamido]methyl}phenyl)carbamate], for which the “AC1.4 Human” value turned out to be 2.58 µM and the negative-log EC50 (pEC50) is 4.67.
Take `CC(=O)N1CCC(c2ccc(NC(=O)OCc3ccc(Cl)cc3)cc2)CC1` [Compound 15, (4-chlorophenyl)methyl N-[4-(1-acetylpiperidin-4-yl)phenyl]carbamate]: the “AC1.4 Human” value was 0.24 µM and the negative-log EC50 (pEC50) was 5.67.
On to `COc1nc(C)ccc1C(=O)N[C@@H](C)c1ccc(NC(=O)OCc2ccc(Cl)cc2)cc1` [Compound 213, (4-chlorophenyl)methyl N-{4-[(1S)-1-[(2-methoxy-6-methylpyridin-3-yl)formamido]ethyl]phenyl}carbamate], for which the “AC1.4 Human” value was determined as 1.95 µM and the pEC50 was 5.53.
On to `O=C(Nc1ccc(CNC(=O)c2ccnn2C2CCOCC2)cc1)OCc1ccc(Cl)cc1` [Compound 238, (4-chlorophenyl)methyl N-[4-({[2-(oxan-4-yl)pyrazol-3-yl]formamido}methyl)phenyl]carbamate], for which the “AC1.4 Human” value stood at 2.29 µM and the negative-log EC50 (pEC50) is 4.97.
The like results for `C[C@H](NC(=O)c1cncc(F)c1)c1ccc(NC(=O)OCc2ccc(Cl)cc2)cc1` [Compound 159, (4-chlorophenyl)methyl N-{4-[(1S)-1-[(5-fluoropyridin-3-yl)formamido]ethyl]phenyl}carbamate] were, in that order, 1.33 µM and 5.37.
Turning to `CNS(=O)(=O)N1CCC(Cc2ccc(NC(=O)OCc3ccc(Cl)cc3)cc2)CC1` [Compound 17, 4-chlorobenzyl (4-((1-(N-methylsulfamoyl)piperidin-4-yl)methyl)phenyl)carbamate], the “AC1.4 Human” value turned out to be 0.25 µM and the pEC50 is 6.05.
`CC1(C)CCN(Cc2ccc(NC(=O)OCc3ccc(Cl)cc3)cc2)C1=O` [Compound 123, (4-chlorophenyl)methyl N-{4-[(3,3-dimethyl-2-oxopyrrolidin-1-yl)methyl]phenyl}carbamate]: the “AC1.4 Human” value came out at 0.98 µM and the pEC50 is 5.30.
Take `COCCn1nccc1C(=O)N(C)Cc1ccc(NC(=O)OCc2ccc(Cl)cc2)cc1` [Compound 77, (4-chlorophenyl)methyl N-[4-({1-[2-(2-methoxyethyl)pyrazol-3-yl]-N-methylformamido}methyl)phenyl]carbamate]: the “AC1.4 Human” value was 0.65 µM and the pEC50 is 5.78.
For `O=C(Cn1cccn1)NCc1ccc(NC(=O)OCc2ccc(Cl)cc2)cc1` [Compound 334, (4-chlorophenyl)methyl N-(4-{[2-(pyrazol-1-yl)acetamido]methyl}phenyl)carbamate], the “AC1.4 Human” value amounted to 9.87 µM and the negative logarithm of the EC50 (pEC50) was 5.03.
For `CCC(=O)N1CCC(c2ccc(NC(=O)OCc3cnco3)cc2)CC1` [Compound 430, oxazol-5-ylmethyl (4-(1-propionylpiperidin-4-yl)phenyl)carbamate], the “AC1.4 Human” value was determined as 0.11 µM and the pEC50 was 4.70.
With `Cc1ocnc1C(=O)NCc1ccc(NC(=O)OCc2ccc(Cl)cc2)cc1` [Compound 321, (4-chlorophenyl)methyl N-(4-{[(5-methyl-1,3-oxazol-4-yl)formamido]methyl}phenyl)carbamate], the “AC1.4 Human” value came to 6.86 µM and the pEC50 was 4.25.
The like results for `CC1(C(=O)NCc2ccc(NC(=O)OCc3ccc(Cl)cc3)cc2)COC1` [Compound 179, (4-chlorophenyl)methyl N-(4-{[(3-methyloxetan-3-yl)formamido]methyl}phenyl)carbamate] were, in that order, 1.50 µM and 4.65.
For the molecule `Cc1ccc(Cc2ccc(NC(=O)OCc3cn[nH]c3)cc2)cn1` [Compound 65, (1H-pyrazol-4-yl)methyl (4-((6-methylpyridin-3-yl)methyl)phenyl)carbamate], the “AC1.4 Human” value stood at 0.58 µM and the negative-log EC50 (pEC50) was 4.43.
As to `COC(=O)N1CCC2(CC(Cc3ccc(NC(=O)OCc4cnco4)cc3F)C2)C1` (stereo not shown) [Compound 371, methyl 2-(2-fluoro-4-(((oxazol-5-ylmethoxy)carbonyl)amino)benzyl)-6-azaspiro[3.4]octane-6-carboxylate], the “AC1.4 Human” value was determined as 0.27 µM and the pEC50 was 5.34.
Regarding `CC(=O)N1CCC(Cc2ccc(NC(=O)OCc3cnco3)cc2F)CC1` [Compound 451, oxazol-5-ylmethyl (4-((1-acetylpiperidin-4-yl)methyl)-3-fluorophenyl)carbamate], the “AC1.4 Human” value came to 0.16 µM and the pEC50 was 5.11.

As usually defined, the pEC50 is the negative decadic logarithm of the EC50, by convention in mol/L.
